Non-standard residues stand in square brackets, D forms with d. Residues, ends and D or L forms follow the SMILES beside them. Nle = CCCC[C@H](N)C(=O)O; Sar = CNCC(=O)O

Furin, sequence (P09958 whole entry): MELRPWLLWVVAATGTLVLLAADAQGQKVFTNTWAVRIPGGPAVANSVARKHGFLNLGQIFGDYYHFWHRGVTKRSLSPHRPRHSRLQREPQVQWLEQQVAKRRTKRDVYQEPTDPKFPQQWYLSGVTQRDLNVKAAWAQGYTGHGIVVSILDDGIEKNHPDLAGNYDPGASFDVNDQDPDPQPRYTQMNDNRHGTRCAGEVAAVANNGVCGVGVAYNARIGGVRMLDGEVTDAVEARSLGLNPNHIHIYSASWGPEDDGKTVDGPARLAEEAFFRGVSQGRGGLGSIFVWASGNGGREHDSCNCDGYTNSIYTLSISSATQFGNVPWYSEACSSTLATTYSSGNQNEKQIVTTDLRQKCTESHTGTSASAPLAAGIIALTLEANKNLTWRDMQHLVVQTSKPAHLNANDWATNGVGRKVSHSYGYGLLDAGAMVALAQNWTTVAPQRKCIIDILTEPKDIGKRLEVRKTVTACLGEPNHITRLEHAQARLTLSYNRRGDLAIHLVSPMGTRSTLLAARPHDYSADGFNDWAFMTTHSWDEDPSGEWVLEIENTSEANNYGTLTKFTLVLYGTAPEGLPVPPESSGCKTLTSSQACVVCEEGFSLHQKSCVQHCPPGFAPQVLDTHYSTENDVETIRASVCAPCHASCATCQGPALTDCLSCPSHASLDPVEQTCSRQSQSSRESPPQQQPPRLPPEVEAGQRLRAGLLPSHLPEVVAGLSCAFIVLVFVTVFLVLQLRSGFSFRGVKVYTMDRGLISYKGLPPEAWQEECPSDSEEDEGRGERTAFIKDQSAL

The assay has as its target Furin (Homo sapiens, UniProt P09958).
Usually Ki stands for the dissociation constant of the complex between target and ligand, obtained from inhibition or displacement. Take `CSCC[C@H](NC(=O)[C@H](CCCNC(=N)N)NC(=O)[C@H](CCCCN)NC(=O)[C@H](CCCCN)NC(=O)[C@H](CCCNC(=N)N)NC(=O)[C@H](CCCNC(=N)N)NC(=O)[C@H](CCCNC(=N)N)NC(=O)[C@H](C)NC(=O)[C@H](CCCNC(=N)N)NC(=O)[C@@H]1CCCN1C(=O)[C@@H](N)[C@@H](C)O)C(=O)O`: the Ki was greater than 0.1 µM. With `C[C@@H](O)[C@H](N)C(=O)N1CCC[C@H]1C(=O)N[C@@H](CCC(N)=O)C(=O)N[C@@H](CCCNC(=N)N)C(=O)N[C@@H](CCC(=O)O)C(=O)N[C@@H](CCCNC(=N)N)C(=O)N[C@@H](CCCNC(=N)N)C(=O)N[C@@H](CCCNC(=N)N)C(=O)N[C@@H](CCCCN)C(=O)N[C@@H](CCCCN)C(=O)N[C@@H](CCCNC(=N)N)C(=O)NCC(=O)O` the figure was greater than 0.1 µM. As for H-TPRERRRKKAG-OH, the Ki was greater than 0.1 µM. In turn, `C[C@H](NC(=O)[C@H](C)NC(=O)[C@H](CCC(=O)O)NC(=O)[C@H](CCCNC(=N)N)NC(=O)[C@@H]1CCCN1C(=O)[C@@H](N)[C@@H](C)O)C(=O)N[C@@H](C)C(=O)N[C@@H](CCCCN)C(=O)N[C@@H](CCCCN)C(=O)N[C@@H](CCCNC(=N)N)C(=O)N(C)CC(=O)O` (H-TPREAAAKKR[Sar]-OH) showed a Ki greater than 0.1 µM. With H-TPRFRRRKKRG-NH2 the figure was greater than 0.1 µM; with H-TPQRGRRRKKRG-OH, greater than 0.1 µM. For the molecule `C[C@@H](O)[C@H](N)C(=O)N1CCC[C@H]1C(=O)N[C@@H](CCC(N)=O)C(=O)N[C@@H](CCCNC(=N)N)C(=O)NCCCCCC(=O)N[C@@H](CCCNC(=N)N)C(=O)N[C@@H](CCCNC(=N)N)C(=O)N[C@@H](CCCNC(=N)N)C(=O)N[C@@H](CCCCN)C(=O)N[C@@H](CCCCN)C(=O)N[C@@H](CCCNC(=N)N)C(=O)NCC(=O)O`, the inhibition constant (Ki) is greater than 0.1 µM. The result for `C[C@H](N)C(=O)N[C@@H](C)C(=O)N[C@@H](C)C(=O)N[C@@H](CCC(=O)O)C(=O)N[C@@H](CCCNC(=N)N)C(=O)N[C@@H](CCCNC(=N)N)C(=O)N[C@@H](CCCNC(=N)N)C(=O)N[C@@H](CCCCN)C(=O)N[C@@H](CCCCN)C(=O)N[C@@H](CCCNC(=N)N)C(=O)N(C)CC(=O)O` (H-AAAERRRKKR[Sar]-OH) reads greater than 0.1 µM; that for H-TPRARRRKKRQ-NH2, 0.047 µM; that for H-TPRTRRRKKRG-OH, greater than 0.1 µM. Molecule H-TAAERRRKKRV-OH showed a Ki greater than 0.1 µM. The molecule `C[C@H](N)C(=O)N1CCC[C@H]1C(=O)N[C@@H](CCCNC(=N)N)C(=O)N[C@@H](CCC(=O)O)C(=O)N[C@@H](CCCNC(=N)N)C(=O)N[C@@H](CCCNC(=N)N)C(=O)N[C@@H](CCCNC(=N)N)C(=O)N[C@@H](CCCCN)C(=O)N[C@@H](CCCCN)C(=O)N[C@@H](CCCNC(=N)N)C(=O)N(C)CC(=O)O` (H-APRERRRKKR[Sar]-OH) gave a Ki greater than 0.1 µM. With `C[C@H](NC(=O)[C@@H](N)[C@@H](C)O)C(=O)N[C@@H](CCCNC(=N)N)C(=O)N[C@@H](CCC(=O)O)C(=O)N[C@@H](CCCNC(=N)N)C(=O)N[C@@H](CCCNC(=N)N)C(=O)N[C@@H](CCCNC(=N)N)C(=O)N[C@@H](CCCCN)C(=O)N[C@@H](CCCCN)C(=O)N[C@@H](CCCNC(=N)N)C(=O)N(C)CC(=O)O` (H-TARERRRKKR[Sar]-OH) the figure was greater than 0.1 µM; with H-TPRERRRKAAG-OH, greater than 0.1 µM. H-TPAARRRKKRV-OH had a Ki greater than 0.1 µM.

As for H-TPREAARKKRG-OH, the Ki was greater than 0.1 µM.

Molecule H-TPAAARRKKR-OH displayed an inhibition constant Ki greater than 0.1 µM. The result for H-TPRDRRRKKRG-NH2 reads greater than 0.1 µM; that for H-APRERRRKKRG-OH, greater than 0.1 µM; that for H-TPRARRRKKRP-OH, greater than 0.1 µM.

As to H-TPRARRRKKRH-NH2, the inhibition constant (Ki) is greater than 0.1 µM. The result for `C[C@H](NC(=O)[C@H](C)NC(=O)[C@H](CCCN=C(N)N)NC(=O)[C@H](CCCN=C(N)N)NC(=O)[C@H](CCCN=C(N)N)NC(=O)[C@H](CCC(=O)O)NC(=O)[C@H](CCCN=C(N)N)NC(=O)[C@@H]1CCCN1C(=O)[C@@H](N)[C@@H](C)O)C(=O)N[C@@H](CCCN=C(N)N)C(=O)O` reads greater than 0.1 µM; that for H-TPQRQRRRKKRG-OH, greater than 0.1 µM; that for H-TPQRARRRKKRH-OH, greater than 0.1 µM.

In turn, H-TPRARRRKKRR-OH yielded a Ki greater than 0.1 µM. With H-TPRARRRKKRE-OH the figure was greater than 0.1 µM; with H-GGGTPQRARRRKKRW-OH, 0.067 µM.

In turn, `C[C@H](NC(=O)[C@H](CCCNC(=N)N)NC(=O)[C@@H]1CCCN1C(=O)[C@@H](N)[C@@H](C)O)C(=O)N[C@@H](CCCNC(=N)N)C(=O)N[C@@H](CCCNC(=N)N)C(=O)N[C@@H](CCCNC(=N)N)C(=O)N[C@@H](CCCCN)C(=O)N[C@@H](CCCCN)C(=O)N[C@@H](CCCNC(=N)N)C(=O)N[C@@H](CS)C(N)=O` returned an inhibition constant (Ki) greater than 0.1 µM. With `C[C@@H](O)[C@H](N)C(=O)N1CCC[C@H]1C(=O)N[C@@H](CCC(N)=O)C(=O)N[C@@H](CCCNC(=N)N)C(=O)N[C@@H](CCCNC(N)=O)C(=O)N[C@@H](CCCNC(=N)N)C(=O)N[C@@H](CCCNC(=N)N)C(=O)N[C@@H](CCCNC(=N)N)C(=O)N[C@@H](CCCCN)C(=O)N[C@@H](CCCCN)C(=O)N[C@@H](CCCNC(=N)N)C(=O)NCC(=O)O` the figure was greater than 0.1 µM; with `CCCC[C@H](NC(=O)[C@H](CCCN=C(N)N)NC(=O)[C@H](CCCCN)NC(=O)[C@H](CCCCN)NC(=O)[C@H](CCCN=C(N)N)NC(=O)[C@H](CCCN=C(N)N)NC(=O)[C@H](CCCN=C(N)N)NC(=O)[C@H](C)NC(=O)[C@H](CCCN=C(N)N)NC(=O)[C@H](CCC(N)=O)NC(=O)[C@@H]1CCCN1C(=O)[C@@H](N)[C@@H](C)O)C(=O)O` (H-TPQRARRRKKR[Nle]-OH), greater than 0.1 µM; with H-APRERRRKKR-OH, greater than 0.1 µM. The result for `C[C@@H](O)[C@H](N)C(=O)N1CCC[C@H]1C(=O)N[C@@H](CCCN=C(N)N)C(=O)N[C@@H](CCCCN)C(=O)N[C@@H](CCCN=C(N)N)C(=O)N[C@@H](CCCN=C(N)N)C(=O)N[C@@H](CCCN=C(N)N)C(=O)N[C@@H](CCCCN)C(=O)N[C@@H](CCCCN)C(=O)N[C@@H](CCCN=C(N)N)C(=O)NCC(N)=O` reads greater than 0.1 µM; that for H-TPRVRRRKKRG-OH, greater than 0.1 µM. With H-GAGAGATPRARRRKKRF-OH the figure was 0.056 µM; with H-TPAARRRKKRG-OH, greater than 0.1 µM; with H-TPRVRRRKKRG-NH2, greater than 0.1 µM.

Regarding H-TPRERRRKKAV-OH, the Ki is greater than 0.1 µM. The result for `C[C@H](NC(=O)[C@H](CCCN=C(N)N)NC(=O)[C@H](CCC(N)=O)NC(=O)[C@@H]1CCCN1C(=O)[C@@H](N)[C@@H](C)O)C(=O)N[C@@H](CCCN=C(N)N)C(=O)N[C@@H](CCCN=C(N)N)C(=O)N[C@@H](CCCN=C(N)N)C(=O)N[C@@H](CCCCN)C(=O)N[C@@H](CCCCN)C(=O)N[C@@H](CCCN=C(N)N)C(=O)N[C@@H](CCCN=C(N)N)C(=O)O` reads greater than 0.1 µM; that for `C[C@H](NC(=O)[C@H](C)NC(=O)[C@@H](N)[C@@H](C)O)C(=O)N[C@@H](CCC(=O)O)C(=O)N[C@@H](CCCNC(=N)N)C(=O)N[C@@H](CCCNC(=N)N)C(=O)N[C@@H](CCCNC(=N)N)C(=O)N[C@@H](CCCCN)C(=O)N[C@@H](CCCCN)C(=O)N[C@@H](CCCNC(=N)N)C(=O)N(C)CC(=O)O` (H-TAAERRRKKR[Sar]-OH), greater than 0.1 µM; that for H-TARERRRKKR-OH, greater than 0.1 µM. With H-TPRMRRRKKRG-NH2 the figure was greater than 0.1 µM.

As for H-TPRARRRKKRR-NH2, the Ki was greater than 0.1 µM. As for `C[C@@H](O)[C@H](N)C(=O)N1CCC[C@H]1C(=O)N[C@@H](CCC(N)=O)C(=O)N[C@@H](CCCN=C(N)N)C(=O)N[C@H](CCC(=O)O)C(=O)N[C@@H](CCCN=C(N)N)C(=O)N[C@@H](CCCN=C(N)N)C(=O)N[C@@H](CCCN=C(N)N)C(=O)N[C@@H](CCCCN)C(=O)N[C@@H](CCCCN)C(=O)N[C@@H](CCCNC(=N)N)C(=O)NCC(=O)O`, the Ki was greater than 0.1 µM. The result for H-TPRNRRRKKRG-OH reads greater than 0.1 µM; that for H-AAAERRRKKRV-OH, greater than 0.1 µM; that for H-TPQRARRRKKRD-OH, 0.05 µM. With H-TPAAARRKKRG-OH the figure was greater than 0.1 µM; with H-TPAERRRKKRG-NH2, greater than 0.1 µM. For the molecule H-TPQRARRRKKRN-OH, the Ki was greater than 0.1 µM.

H-TPRNRRRKKRG-NH2: the inhibitory constant (Ki) is greater than 0.1 µM.

In turn, `C[C@@H](O)[C@H](N)C(=O)N1CCC[C@H]1C(=O)N[C@@H](CCCNC(=N)N)C(=O)N[C@@H](CCCNC(N)=O)C(=O)N[C@@H](CCCNC(=N)N)C(=O)N[C@@H](CCCNC(=N)N)C(=O)N[C@@H](CCCNC(=N)N)C(=O)N[C@@H](CCCCN)C(=O)N[C@@H](CCCCN)C(=O)N[C@@H](CCCNC(=N)N)C(=O)NCC(N)=O` came in with a Ki greater than 0.1 µM. With H-TPAERRRKKRV-OH the figure was greater than 0.1 µM; with H-TPRARRRKKRA-OH, greater than 0.1 µM.

Regarding `CSC[C@H](NC(=O)[C@H](CCCNC(=N)N)NC(=O)[C@H](CCC(N)=O)NC(=O)[C@@H]1CCCN1C(=O)[C@@H](N)[C@@H](C)O)C(=O)N[C@@H](CCCNC(=N)N)C(=O)N[C@@H](CCCNC(=N)N)C(=O)N[C@@H](CCCNC(=N)N)C(=O)N[C@@H](CCCCN)C(=O)N[C@@H](CCCCN)C(=O)N[C@@H](CCCNC(=N)N)C(=O)NCC(=O)O`, the Ki was greater than 0.1 µM.

On to H-TPRERRRKKR-OH, for which the Ki is greater than 0.1 µM.

The molecule H-TPRARRRKKRN-NH2 came in with an inhibitory constant (Ki) of 0.045 µM. The result for H-TPRGRRRKKRG-NH2 reads greater than 0.1 µM; that for H-TPRAARRKKRV-OH, greater than 0.1 µM; that for H-TPRLRRRKKRG-NH2, greater than 0.1 µM. The molecule H-TPRARRRKKRD-OH came in with a Ki of 0.056 µM. The result for H-TPRERRRAKRG-OH reads greater than 0.1 µM; that for H-TPREARRKKR-OH, greater than 0.1 µM; that for H-TPQRARRRKKRC-OH, greater than 0.1 µM. The result for `C[C@H](NC(=O)[C@H](CCCN=C(N)N)NC(=O)[C@@H]1CCCN1C(=O)[C@@H](N)[C@@H](C)O)C(=O)N[C@@H](CCCN=C(N)N)C(=O)N[C@@H](CCCN=C(N)N)C(=O)N[C@@H](CCCN=C(N)N)C(=O)N[C@@H](CCCCN)C(=O)N[C@@H](CCCCN)C(=O)N[C@@H](CCCN=C(N)N)C(=O)N(C)CC(=O)O` reads greater than 0.1 µM.

These data come from ChEMBL document CHEMBL1156471, “Targeting host cell furin proprotein convertases as a therapeutic strategy against bacterial toxins and viral pathogens” (J Biol Chem, 2007).
